Data from PubChem BioAssay (NCI).
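GI50: concentration for 50% inhibition of growth. The concentration for full growth arrest is given as TGI.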

Key:
Assay in all cases: NCI tumour cell line growth inhibition, 384-well format
K-562 leukemia = system: K-562 leukemia
UACC-62 melanoma = system: UACC-62 melanoma
U251 glioblastoma = system: U251 glioblastoma
KM12 colon = system: KM12 colon
NCI/ADR-RES ovarian = system: NCI/ADR-RES ovarian
NCI-H522 lung = system: NCI-H522 lung
BT-549 breast = system: BT-549 breast
T-47D breast = system: T-47D breast
LOX IMVI melanoma = system: LOX IMVI melanoma
RPMI-8226 leukemia = system: RPMI-8226 leukemia
NCI-H460 NSCLC = system: NCI-H460 NSCLC
IGROV1 ovarian = system: IGROV1 ovarian
MDA-MB-468 breast = system: MDA-MB-468 breast
ACHN renal = system: ACHN renal
SF-268 CNS = system: SF-268 CNS
HL-60(TB) leukemia = system: HL-60(TB) leukemia
EKVX NSCLC = system: EKVX NSCLC
HOP-62 NSCLC = system: HOP-62 NSCLC
MALME-3M melanoma = system: MALME-3M melanoma
OVCAR-4 ovarian = system: OVCAR-4 ovarian
TK-10 renal = system: TK-10 renal
SK-OV-3 ovarian = system: SK-OV-3 ovarian
HS 578T breast = system: HS 578T breast
MOLT-4 leukemia = system: MOLT-4 leukemia
UO-31 renal = system: UO-31 renal
UACC-257 melanoma = system: UACC-257 melanoma
COLO 205 colon = system: COLO 205 colon
SF-539 CNS = system: SF-539 CNS
A498 renal = system: A498 renal
DU-145 prostate = system: DU-145 prostate
A549 NSCLC = system: A549 NSCLC
SNB-19 CNS = system: SNB-19 CNS
SNB-75 CNS = system: SNB-75 CNS
MDA-MB-435 melanoma = system: MDA-MB-435 melanoma
OVCAR-8 ovarian = system: OVCAR-8 ovarian
MDA-MB-231 breast = system: MDA-MB-231 breast
SK-MEL-5 melanoma = system: SK-MEL-5 melanoma
CAKI-1 renal = system: CAKI-1 renal
SW-620 colon = system: SW-620 colon
PC-3 prostate = system: PC-3 prostate
M14 melanoma = system: M14 melanoma
OVCAR-3 ovarian = system: OVCAR-3 ovarian
HCT-15 colon = system: HCT-15 colon
HT29 colon = system: HT29 colon
NCI-H322M lung = system: NCI-H322M lung

Compound `Cc1cc(-c2ncc(-c3cccnc3)cc2/C=C/c2ccccc2)cnc1-c1cccnc1` has a GI50 (K-562 leukemia) of 3 µM, a TGI (K-562 leukemia) of 32.2 µM and a GI50 (UACC-62 melanoma) of 2.16 µM. The TGI (UACC-62 melanoma) was 7.5 µM, the GI50 (U251 glioblastoma) was 3.8 µM and the GI50 (KM12 colon) was 3.15 µM. It also gave a TGI (KM12 colon) of 12.1 µM, a GI50 (NCI/ADR-RES ovarian) of 2.19 µM and a TGI (NCI/ADR-RES ovarian) of 5.42 µM. It also gave a GI50 (NCI-H522 lung) of 2.02 µM, a TGI (NCI-H522 lung) of 5.12 µM and a GI50 (BT-549 breast) of 2.32 µM. It also gave a TGI (BT-549 breast) of 9.63 µM, a GI50 (T-47D breast) of 1.93 µM and a TGI (T-47D breast) of 8.06 µM. For the same compound, the GI50 (LOX IMVI melanoma) was 2.22 µM, the TGI (LOX IMVI melanoma) was 5.08 µM and the GI50 (RPMI-8226 leukemia) was 0.62 µM. It also gave a TGI (RPMI-8226 leukemia) of 2.37 µM, a GI50 (NCI-H460 NSCLC) of 1.93 µM and a TGI (NCI-H460 NSCLC) of 3.46 µM. The GI50 (IGROV1 ovarian) was 3.72 µM, the GI50 (MDA-MB-468 breast) was 3.34 µM and the GI50 (ACHN renal) was 3.79 µM. The GI50 (SF-268 CNS) was 3.68 µM, the TGI (SF-268 CNS) was 15.3 µM and the GI50 (HL-60(TB) leukemia) was 1.32 µM. For the same compound, the TGI (HL-60(TB) leukemia) was 2.59 µM, the GI50 (EKVX NSCLC) was 3.15 µM and the GI50 (HOP-62 NSCLC) was 1.85 µM. It also gave a TGI (HOP-62 NSCLC) of 4.11 µM, a GI50 (MALME-3M melanoma) of 2.53 µM and a TGI (MALME-3M melanoma) of 6.85 µM. For the same compound, the GI50 (OVCAR-4 ovarian) was 2.75 µM, the TGI (OVCAR-4 ovarian) was 9.25 µM and the GI50 (TK-10 renal) was 3.24 µM. For the same compound, the GI50 (SK-OV-3 ovarian) was 3.17 µM, the TGI (SK-OV-3 ovarian) was 11.3 µM and the GI50 (HS 578T breast) was 1.6 µM. The TGI (HS 578T breast) was 3.56 µM, the GI50 (MOLT-4 leukemia) was 1.13 µM and the TGI (MOLT-4 leukemia) was 2.34 µM. It also gave a GI50 (UO-31 renal) of 2.99 µM, a GI50 (UACC-257 melanoma) of 6.52 µM and a GI50 (COLO 205 colon) of 6.06 µM. For the same compound, the GI50 (SF-539 CNS) was 3.76 µM, the GI50 (A498 renal) was 2.78 µM and the TGI (A498 renal) was 9.16 µM. For the same compound, the GI50 (DU-145 prostate) was 1.81 µM, the TGI (DU-145 prostate) was 3.55 µM and the GI50 (A549 NSCLC) was 3.33 µM. It also gave a TGI (A549 NSCLC) of over 100 µM, a GI50 (SNB-19 CNS) of 3.82 µM and a TGI (SNB-19 CNS) of 19.6 µM. It also gave a GI50 (SNB-75 CNS) of 3.07 µM, a TGI (SNB-75 CNS) of 16.7 µM and a GI50 (MDA-MB-435 melanoma) of 6.49 µM. The GI50 (OVCAR-8 ovarian) was 2.41 µM, the TGI (OVCAR-8 ovarian) was over 100 µM and the GI50 (MDA-MB-231 breast) was 4.15 µM. For the same compound, the TGI (MDA-MB-231 breast) was 22.5 µM, the GI50 (SK-MEL-5 melanoma) was 1.12 µM and the TGI (SK-MEL-5 melanoma) was 2.57 µM. For the same compound, the GI50 (CAKI-1 renal) was 3.04 µM, the TGI (CAKI-1 renal) was 21.4 µM and the GI50 (SW-620 colon) was 3.93 µM. For the same compound, the GI50 (PC-3 prostate) was 2.04 µM, the TGI (PC-3 prostate) was 4.58 µM and the GI50 (M14 melanoma) was 3.76 µM. The TGI (M14 melanoma) was 12.6 µM, the GI50 (OVCAR-3 ovarian) was 2.37 µM and the TGI (OVCAR-3 ovarian) was 5.95 µM. The GI50 (HCT-15 colon) was 3.54 µM, the GI50 (HT29 colon) was 3.69 µM and the GI50 (NCI-H322M lung) was 2.29 µM. It also gave a TGI (NCI-H322M lung) of 5.49 µM.
